Laboratory results reported in US4229375A (priority 1977, dated 1980).
Structures can show the parent of a compound that is named as a salt.

Tests used:
[1] = system: Newcastle disease virus; test: microbe, parasite or virus in culture; assay type: cell-based; settings: for MIC: avian paramyxovirus 1, in Gallus gallus, 48 h, read-out: Minimum growth-inhibition concentration
[2] = in vitro; settings: chicken, chick embryo fibroblast

Compound	MIC [1]	MCC at 48 h [2]	inhibitory effect on the growth of viruses (in words) ([1]; compared with 1-aminotricyclo[4.3.1.1^2,5 ]undecane)	inhibitory effect on the growth of Newcastle disease virus (in words) ([1]; in chick embryo fibroblasts)	fraction of the concentration of 1-aminotricyclo[4.3.1.1^2,5 ]undecane at which virus multiplication is inhibited ([1]; relative to 1-aminotricyclo[4.3.1.1^2,5 ]undecane, Newcastle disease virus in chick embryo fibroblasts)	fraction of the concentration of adamantylamine hydrochloride at which virus multiplication is inhibited ([1]; relative to adamantylamine hydrochloride, Newcastle disease virus in chick embryo fibroblasts)
Cl.NC12CCCC(C1)C1CCC2C1 (stereo not shown) [1-Aminotricyclo-[4.3.1.1^2,5]undecane hydrochloride, reference compound]	87 µg/mL	87 µg/mL				
Cl.NCC12CCCC(C1)C1CCC2C1 (stereo not shown) [1-aminomethyltricyclo[4.3.1.1^2,5]undecane hydrochloride]	40 µg/mL	40 µg/mL				
NCC12CCCC(C1)C1CCC2C1 (stereo not shown) [compound of the formula (I), 1-aminomethyltricyclo[4.3.1.1^2,5]undecane]			inhibitory effect on the growth of viruses at a lower concentration than the earlier compound	excellent inhibitory effect	1/2	about 1/6
NC12CC3CC(CC(C3)C1)C2 [Adamantylamine hydrochloride, reference compound]	250 µg/mL	250 µg/mL				
